Data: patent US12702656B2, “ALA and salt formulation” (Molecular Product Management LLC, priority 2016, dated 2026)

Key:
[1] = cited from earlier work
[2] = Oral dissolve acceptability / ALA burn of ALA lozenges and tablets in users; details: salt added to, or salt form used in, oral dissolve ALA formulation
Description: These tablets are circular, 9 mm in diameter, approximately 5 mm thick, having a weight of approximately 0.35 g and dissolution times of about 3.5 minutes.
Such NaCl-tablet and Non-Salt-tablet formulations being referred to as “NaCl-formulations” and “Non-Salt-formulation” respectively.
One way to specify or measure the difference resulting from the addition of any organic or inorganic salt (such as NaCl) to a formulation, is to measure the degree to which the Salt-formulation has less of an ALA burn than the Non-Salt-formulation when dissolved in the mouth.

[3] = antacid taken with ALA taken orally (ingested); found by some individuals
Description: Some of the ALA in the saliva is swallowed during oral dissolve administration, therefore the esophagus and stomach encounter some ALA and may be irritated by it, particularly in humans and non-human species with sensitive stomachs.

Structure (SMILES)	reduction of ALA burn (burning sensation in the mouth) [2]	further results
O=C(O)CCCCC1CCSS1 (stereo not drawn) [ALA, Alpha-lipoic acid]	–	pKa [1]: 4.7
[Cl-].[Na+] [NaCl, sodium chloride]	reduces the ALA burn during oral dissolution	–
O=C([O-])CCCC[C@@H]1CCSS1.[Na+] [Na—R-ALA]	further reduction of the ALA burning and/or rawness problems	–
O=C([O-])[O-].[Ca+2] [calcium carbonate]	–	stomach irritation [3]: reduces this stomach irritation
